Experimental data taken from ChEMBL document CHEMBL3745672, “Novel compounds reducing IRS-1 serine phosphorylation for treatment of diabetes” (Bioorg Med Chem Lett, 2016).

Key:
[1] = molecular target: Serine/threonine-protein kinase PAK 1 (Homo sapiens) (UniProt Q13153); assay: Inhibition of PAK1 (unknown origin) at 10 uM
[2] = molecular target: Serine/threonine-protein kinase mTOR (Homo sapiens) (UniProt P42345); assay: Inhibition of mTOR (unknown origin) at 10 uM
[3] = molecular target: Protein kinase C alpha type (Homo sapiens) (UniProt P17252); assay: Inhibition of PKCalpha (unknown origin) at 1 uM
[4] = molecular target: Insulin receptor (Homo sapiens) (UniProt P06213); assay: Inhibition of INSR (unknown origin) at 1 uM
[5] = molecular target: Mitogen-activated protein kinase 8 (Homo sapiens, UniProt P45983); assay: Inhibition of JNK1 (unknown origin) at 1 uM
[6] = molecular target: T1, Inhibitor of nuclear factor kappa-B kinase subunit beta (Homo sapiens) (UniProt O14920); assay: Inhibition of IKKbeta (unknown origin) at 1 uM
T1 sequence (whole entry): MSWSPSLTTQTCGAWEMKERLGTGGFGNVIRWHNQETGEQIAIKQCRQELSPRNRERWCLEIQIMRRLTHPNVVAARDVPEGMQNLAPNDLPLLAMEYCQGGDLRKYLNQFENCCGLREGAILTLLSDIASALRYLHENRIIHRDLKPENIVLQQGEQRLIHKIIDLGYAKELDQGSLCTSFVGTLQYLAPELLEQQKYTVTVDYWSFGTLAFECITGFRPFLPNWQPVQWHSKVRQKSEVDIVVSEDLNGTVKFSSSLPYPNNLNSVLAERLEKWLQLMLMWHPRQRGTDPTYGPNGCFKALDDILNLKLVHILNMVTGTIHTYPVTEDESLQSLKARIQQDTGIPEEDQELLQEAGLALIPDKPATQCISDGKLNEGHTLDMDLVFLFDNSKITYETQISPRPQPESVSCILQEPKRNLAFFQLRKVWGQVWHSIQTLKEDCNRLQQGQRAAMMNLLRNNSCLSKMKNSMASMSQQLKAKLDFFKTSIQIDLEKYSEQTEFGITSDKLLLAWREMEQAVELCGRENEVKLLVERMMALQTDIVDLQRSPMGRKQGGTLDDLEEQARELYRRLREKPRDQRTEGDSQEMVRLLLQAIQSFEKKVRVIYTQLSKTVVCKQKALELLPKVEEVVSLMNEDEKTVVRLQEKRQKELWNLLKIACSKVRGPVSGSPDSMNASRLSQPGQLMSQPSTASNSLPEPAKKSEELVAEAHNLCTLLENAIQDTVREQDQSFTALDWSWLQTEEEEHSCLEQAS

[7] = molecular target: Tyrosine-protein kinase SYK (Homo sapiens) (UniProt P43405); assay: Inhibition of SYK (unknown origin) at 1 uM
[8] = molecular target: Proto-oncogene tyrosine-protein kinase receptor Ret (Homo sapiens) (UniProt P07949); assay: Inhibition of RET (unknown origin) at 1 uM
[9] = molecular target: Serine/threonine-protein kinase B-raf (Homo sapiens) (UniProt P15056); assay: Inhibition of B-RAF (unknown origin) at 1 uM
[10] = molecular target: Platelet-derived growth factor receptor beta (Homo sapiens) (UniProt P09619); assay: Inhibition of PDGFRbeta (unknown origin) at 1 uM
[11] = molecular target: Proto-oncogene tyrosine-protein kinase Src (Homo sapiens) (UniProt P12931); assay: Inhibition of SRC (unknown origin) at 1 uM
[12] = molecular target: T2, Tyrosine-protein kinase JAK3 (Homo sapiens) (UniProt P52333); assay: Inhibition of JAK3 (unknown origin) at 1 uM
T2 sequence (whole entry): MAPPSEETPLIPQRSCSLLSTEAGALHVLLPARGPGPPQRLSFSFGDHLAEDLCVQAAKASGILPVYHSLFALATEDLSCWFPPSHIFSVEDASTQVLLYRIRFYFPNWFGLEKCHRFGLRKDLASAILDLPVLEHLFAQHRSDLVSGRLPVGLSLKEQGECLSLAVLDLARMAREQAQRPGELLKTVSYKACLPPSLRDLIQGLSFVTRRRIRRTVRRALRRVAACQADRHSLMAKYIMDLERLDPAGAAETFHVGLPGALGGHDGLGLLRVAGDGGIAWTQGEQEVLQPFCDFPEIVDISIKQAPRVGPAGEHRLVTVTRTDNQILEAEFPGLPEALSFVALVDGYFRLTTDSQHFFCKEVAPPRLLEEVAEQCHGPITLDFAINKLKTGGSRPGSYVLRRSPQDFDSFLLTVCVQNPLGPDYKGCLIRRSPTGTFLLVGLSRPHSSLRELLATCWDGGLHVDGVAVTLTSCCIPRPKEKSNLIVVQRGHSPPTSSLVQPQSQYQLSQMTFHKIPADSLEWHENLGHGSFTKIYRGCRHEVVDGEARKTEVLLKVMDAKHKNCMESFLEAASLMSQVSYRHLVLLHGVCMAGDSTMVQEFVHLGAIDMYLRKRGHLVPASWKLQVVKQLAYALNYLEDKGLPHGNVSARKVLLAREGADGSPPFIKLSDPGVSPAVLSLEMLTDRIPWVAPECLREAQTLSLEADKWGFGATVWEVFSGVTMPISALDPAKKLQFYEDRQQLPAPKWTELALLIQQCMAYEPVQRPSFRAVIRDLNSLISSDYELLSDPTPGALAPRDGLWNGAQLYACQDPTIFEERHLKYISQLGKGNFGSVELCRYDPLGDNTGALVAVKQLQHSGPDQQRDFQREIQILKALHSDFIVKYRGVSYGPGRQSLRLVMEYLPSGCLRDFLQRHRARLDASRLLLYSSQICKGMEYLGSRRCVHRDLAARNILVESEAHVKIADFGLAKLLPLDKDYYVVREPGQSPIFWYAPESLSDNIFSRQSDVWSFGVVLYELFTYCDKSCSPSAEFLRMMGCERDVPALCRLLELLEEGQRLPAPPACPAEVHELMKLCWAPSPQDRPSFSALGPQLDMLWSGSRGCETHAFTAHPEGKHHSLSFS

[13] = molecular target: T3, Serine/threonine-protein kinase Chk1 (Homo sapiens) (UniProt O14757); assay: Inhibition of CHK1 (unknown origin) at 1 uM
T3 sequence (whole entry): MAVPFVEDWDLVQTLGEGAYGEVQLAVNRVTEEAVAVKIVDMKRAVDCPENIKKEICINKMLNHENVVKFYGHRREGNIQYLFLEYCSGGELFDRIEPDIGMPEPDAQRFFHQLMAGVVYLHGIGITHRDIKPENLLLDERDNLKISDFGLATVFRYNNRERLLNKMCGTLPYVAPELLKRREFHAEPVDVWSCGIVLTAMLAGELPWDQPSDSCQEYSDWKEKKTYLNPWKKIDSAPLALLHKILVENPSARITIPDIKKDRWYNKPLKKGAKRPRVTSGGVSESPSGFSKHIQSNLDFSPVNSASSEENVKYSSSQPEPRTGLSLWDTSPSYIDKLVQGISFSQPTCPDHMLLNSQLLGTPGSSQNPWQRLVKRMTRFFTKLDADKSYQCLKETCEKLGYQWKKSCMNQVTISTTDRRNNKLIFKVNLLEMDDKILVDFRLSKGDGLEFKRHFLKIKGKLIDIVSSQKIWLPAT

Chain of Serine/threonine-protein kinase PAK 1 (Homo sapiens) (Q13153 whole entry): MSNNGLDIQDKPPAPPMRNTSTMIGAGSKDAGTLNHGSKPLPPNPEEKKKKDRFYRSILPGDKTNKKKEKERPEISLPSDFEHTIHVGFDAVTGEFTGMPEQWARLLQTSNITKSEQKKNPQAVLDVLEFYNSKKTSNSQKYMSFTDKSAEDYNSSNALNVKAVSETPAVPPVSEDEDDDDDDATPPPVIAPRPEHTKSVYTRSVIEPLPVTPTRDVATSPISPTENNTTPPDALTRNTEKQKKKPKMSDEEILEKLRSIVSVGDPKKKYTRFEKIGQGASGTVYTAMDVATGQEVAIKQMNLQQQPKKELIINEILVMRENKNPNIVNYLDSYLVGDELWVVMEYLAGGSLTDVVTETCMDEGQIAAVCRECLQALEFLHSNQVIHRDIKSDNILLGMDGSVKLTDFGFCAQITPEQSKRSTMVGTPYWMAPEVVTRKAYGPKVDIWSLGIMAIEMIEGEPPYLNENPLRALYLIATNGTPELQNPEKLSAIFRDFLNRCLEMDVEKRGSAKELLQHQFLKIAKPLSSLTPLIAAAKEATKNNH
Chain of Mitogen-activated protein kinase 8 (P45983 whole entry): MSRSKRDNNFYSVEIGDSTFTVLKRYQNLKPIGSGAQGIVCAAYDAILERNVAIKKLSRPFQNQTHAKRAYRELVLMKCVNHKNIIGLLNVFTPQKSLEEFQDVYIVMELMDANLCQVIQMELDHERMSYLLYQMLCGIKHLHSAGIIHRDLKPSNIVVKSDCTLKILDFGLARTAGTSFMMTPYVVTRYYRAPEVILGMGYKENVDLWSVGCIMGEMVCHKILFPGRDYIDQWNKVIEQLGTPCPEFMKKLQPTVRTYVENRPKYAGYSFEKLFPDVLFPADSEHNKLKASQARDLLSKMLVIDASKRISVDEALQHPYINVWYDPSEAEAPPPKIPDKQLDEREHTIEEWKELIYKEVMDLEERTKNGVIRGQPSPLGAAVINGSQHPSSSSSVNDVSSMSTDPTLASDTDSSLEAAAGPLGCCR
Chain of Platelet-derived growth factor receptor beta (Homo sapiens) (P09619 whole entry): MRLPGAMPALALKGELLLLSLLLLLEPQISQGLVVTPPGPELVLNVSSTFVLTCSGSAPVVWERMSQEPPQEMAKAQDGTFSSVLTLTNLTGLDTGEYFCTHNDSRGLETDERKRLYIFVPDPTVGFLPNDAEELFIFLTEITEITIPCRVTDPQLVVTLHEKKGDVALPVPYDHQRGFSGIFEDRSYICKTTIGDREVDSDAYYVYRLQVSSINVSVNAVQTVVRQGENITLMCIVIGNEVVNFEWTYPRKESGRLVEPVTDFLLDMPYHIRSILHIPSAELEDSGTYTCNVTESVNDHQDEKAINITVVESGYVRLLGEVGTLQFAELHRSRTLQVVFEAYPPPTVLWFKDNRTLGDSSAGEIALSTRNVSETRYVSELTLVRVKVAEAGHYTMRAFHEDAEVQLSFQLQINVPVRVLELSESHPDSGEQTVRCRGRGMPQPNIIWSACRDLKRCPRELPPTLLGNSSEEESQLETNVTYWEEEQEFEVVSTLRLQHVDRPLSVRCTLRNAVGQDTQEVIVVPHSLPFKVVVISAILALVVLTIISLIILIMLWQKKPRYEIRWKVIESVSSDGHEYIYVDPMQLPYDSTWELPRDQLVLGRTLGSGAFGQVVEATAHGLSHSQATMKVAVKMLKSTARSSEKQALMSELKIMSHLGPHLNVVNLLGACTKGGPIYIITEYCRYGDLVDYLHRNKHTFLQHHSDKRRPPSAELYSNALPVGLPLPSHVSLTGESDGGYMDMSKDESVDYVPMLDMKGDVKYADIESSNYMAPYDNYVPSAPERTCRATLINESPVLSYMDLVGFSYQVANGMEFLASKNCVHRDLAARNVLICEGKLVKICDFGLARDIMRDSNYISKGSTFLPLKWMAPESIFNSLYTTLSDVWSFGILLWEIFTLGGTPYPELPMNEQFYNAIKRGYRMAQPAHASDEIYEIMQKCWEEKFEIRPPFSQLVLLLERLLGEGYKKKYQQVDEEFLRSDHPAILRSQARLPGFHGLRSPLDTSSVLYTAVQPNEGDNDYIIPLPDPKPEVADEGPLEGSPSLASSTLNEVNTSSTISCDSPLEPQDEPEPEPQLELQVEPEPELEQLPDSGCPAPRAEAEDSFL
Chain of Serine/threonine-protein kinase B-raf (Homo sapiens) (P15056 whole entry): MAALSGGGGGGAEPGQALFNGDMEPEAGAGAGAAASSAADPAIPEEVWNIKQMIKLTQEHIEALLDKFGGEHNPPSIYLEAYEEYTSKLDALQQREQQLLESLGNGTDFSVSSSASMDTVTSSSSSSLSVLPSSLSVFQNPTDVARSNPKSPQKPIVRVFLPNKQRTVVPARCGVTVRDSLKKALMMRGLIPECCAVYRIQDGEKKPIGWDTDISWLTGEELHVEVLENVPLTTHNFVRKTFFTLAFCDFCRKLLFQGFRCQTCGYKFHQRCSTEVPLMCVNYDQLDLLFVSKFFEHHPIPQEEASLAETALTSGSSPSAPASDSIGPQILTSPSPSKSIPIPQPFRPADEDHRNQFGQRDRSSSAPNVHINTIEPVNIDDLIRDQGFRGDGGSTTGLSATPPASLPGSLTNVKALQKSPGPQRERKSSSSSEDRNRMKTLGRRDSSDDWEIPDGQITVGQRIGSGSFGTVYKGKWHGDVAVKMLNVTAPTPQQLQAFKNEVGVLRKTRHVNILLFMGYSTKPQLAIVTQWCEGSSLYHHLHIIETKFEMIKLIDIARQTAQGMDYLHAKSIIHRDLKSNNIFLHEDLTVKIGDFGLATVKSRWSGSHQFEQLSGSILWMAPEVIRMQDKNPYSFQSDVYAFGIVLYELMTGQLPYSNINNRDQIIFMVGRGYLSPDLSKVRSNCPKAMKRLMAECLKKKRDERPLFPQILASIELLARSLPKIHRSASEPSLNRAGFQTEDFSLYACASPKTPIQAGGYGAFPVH
Chain of Proto-oncogene tyrosine-protein kinase receptor Ret (Homo sapiens) (P07949 whole entry): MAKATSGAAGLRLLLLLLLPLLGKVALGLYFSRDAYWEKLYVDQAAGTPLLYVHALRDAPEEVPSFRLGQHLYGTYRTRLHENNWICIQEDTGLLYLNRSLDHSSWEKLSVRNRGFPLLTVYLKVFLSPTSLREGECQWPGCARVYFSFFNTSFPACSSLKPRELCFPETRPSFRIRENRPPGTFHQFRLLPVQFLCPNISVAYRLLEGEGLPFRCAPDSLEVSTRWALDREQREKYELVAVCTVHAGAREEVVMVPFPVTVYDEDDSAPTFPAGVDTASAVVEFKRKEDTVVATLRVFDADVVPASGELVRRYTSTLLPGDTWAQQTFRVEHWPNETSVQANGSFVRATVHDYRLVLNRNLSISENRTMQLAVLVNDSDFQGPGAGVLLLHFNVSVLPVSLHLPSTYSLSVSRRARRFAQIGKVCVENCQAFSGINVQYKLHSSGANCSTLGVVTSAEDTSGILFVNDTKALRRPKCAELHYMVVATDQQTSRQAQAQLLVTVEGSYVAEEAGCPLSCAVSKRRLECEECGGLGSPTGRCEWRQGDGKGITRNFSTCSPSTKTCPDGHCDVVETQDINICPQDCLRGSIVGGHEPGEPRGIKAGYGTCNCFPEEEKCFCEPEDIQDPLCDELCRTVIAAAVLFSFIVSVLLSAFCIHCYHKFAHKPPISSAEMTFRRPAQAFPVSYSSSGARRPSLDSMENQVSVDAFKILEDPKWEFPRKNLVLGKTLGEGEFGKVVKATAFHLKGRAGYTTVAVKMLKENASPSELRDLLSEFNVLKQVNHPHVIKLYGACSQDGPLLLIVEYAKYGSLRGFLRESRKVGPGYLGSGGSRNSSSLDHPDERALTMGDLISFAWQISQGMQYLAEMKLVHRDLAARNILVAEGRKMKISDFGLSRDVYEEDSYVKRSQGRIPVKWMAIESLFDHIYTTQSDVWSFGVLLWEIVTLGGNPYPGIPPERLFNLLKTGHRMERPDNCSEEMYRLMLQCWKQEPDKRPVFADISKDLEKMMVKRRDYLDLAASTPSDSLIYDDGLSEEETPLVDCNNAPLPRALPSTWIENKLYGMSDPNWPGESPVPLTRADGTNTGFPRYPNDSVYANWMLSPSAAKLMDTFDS

SMILES | inhibition [1] [%] | inhibition [2] [%] | also measured
CN1CCN(c2ccc(Nc3ncc4cc(Oc5c(Cl)cccc5Cl)c(=O)n(C)c4n3)cc2)CC1 | 4 | 7 | –
Cn1c(=O)c(Oc2ccc(F)cc2F)cc2cnc(Nc3ccc(N4CCCCC4)cc3)nc21 | 3 | 33 | –
Cn1c(=O)c(Oc2ccc(F)cc2F)cc2cnc(NCCc3ccccn3)nc21 | 0 | 15 | –
Cn1c(=O)c(Oc2ccc(F)cc2F)cc2cnc(NC3CCN(S(N)(=O)=O)CC3)nc21 | – | – | inhibition [3]: 10%; inhibition [4]: 11%; inhibition [5]: 71%; inhibition [6]: 13%; inhibition [7]: 14%; inhibition [8]: 30%; inhibition [9]: 18%; inhibition [10]: 13%; inhibition [11]: 7%; inhibition [12]: 10%; inhibition [13]: 9%
Cn1c(=O)c(Oc2c(Cl)cccc2Cl)cc2cnc(NC3CCOCC3)nc21 | 0 | 24 | –
CN1CCN(c2ccc(Nc3ncc4cc(Oc5ccc(F)cc5F)c(=O)n(C)c4n3)cc2)CC1 | 6 | 0 | –

Further lines, with some results ahead:

inhibition [1] [%] | inhibition [2] [%] | SMILES | also measured
0 | 9 | CN1CCN(CCCNc2ncc3cc(Oc4ccc(F)cc4F)c(=O)n(C)c3n2)CC1 | –
0 | 5 | CN(C)CCNc1ncc2cc(Oc3ccc(F)cc3F)c(=O)n(C)c2n1 | –
8 | 19 | Cn1c(=O)c(Oc2ccc(F)cc2F)cc2cnc(NC3CCN(S(C)(=O)=O)CC3)nc21 | –
6 | 22 | Cn1c(=O)c(Oc2ccc(F)cc2F)cc2cnc(Nc3ccc(N4CCC(O)CC4)cc3)nc21 | –
